Experimental findings from ChEMBL document CHEMBL1201862, “PubChem BioAssay data set” (2004) are described below.

Active and inactive are the calls of the source. A value given as a limit tells only on which side of the number the result lay.

In data set [1] the target is T1, NADPH oxidase 1 (Homo sapiens, UniProt Q9Y5S8).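 Further: Cell-based assay with luminescence read-out, IC50 derived from inhibitor dose-response curves; intracellular ROS from endogenous NOX1 in intact HT29 colon cancer cells; potency of inhibitors that lower the ROS luminescence signal.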
T1 sequence (Q9Y5S8 whole entry): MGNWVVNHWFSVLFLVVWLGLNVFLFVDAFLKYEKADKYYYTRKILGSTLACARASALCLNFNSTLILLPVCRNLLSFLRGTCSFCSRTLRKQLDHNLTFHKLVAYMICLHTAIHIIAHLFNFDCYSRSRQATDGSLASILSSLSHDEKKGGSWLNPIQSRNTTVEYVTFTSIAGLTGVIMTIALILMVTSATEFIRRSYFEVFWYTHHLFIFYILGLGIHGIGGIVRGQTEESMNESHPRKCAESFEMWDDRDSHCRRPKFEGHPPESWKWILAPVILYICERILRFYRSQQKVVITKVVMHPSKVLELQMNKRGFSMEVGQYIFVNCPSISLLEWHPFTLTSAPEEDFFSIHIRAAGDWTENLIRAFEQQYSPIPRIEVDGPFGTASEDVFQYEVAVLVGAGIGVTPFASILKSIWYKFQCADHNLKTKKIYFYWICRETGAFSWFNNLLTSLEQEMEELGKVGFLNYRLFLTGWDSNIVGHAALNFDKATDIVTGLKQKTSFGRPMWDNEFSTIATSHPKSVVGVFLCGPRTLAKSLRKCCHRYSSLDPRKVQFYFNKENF
In kind it is functional, cell-based.

Data set [2] concerns the target Cytochrome P450 2C9 (Homo sapiens, UniProt P11712).
The target in data set [3] is Cytochrome P450 2C19 (Homo sapiens, UniProt P33261). In words: Cytochrome panel assay with activity outcomes. Panel member name: p450-cyp2c19 Compounds with AC50 equal or less than 10 uM are considered active. In kind it is functional. To be noted: read-out: AC50.
Sequence of Cytochrome P450 2C19 (P33261 whole entry): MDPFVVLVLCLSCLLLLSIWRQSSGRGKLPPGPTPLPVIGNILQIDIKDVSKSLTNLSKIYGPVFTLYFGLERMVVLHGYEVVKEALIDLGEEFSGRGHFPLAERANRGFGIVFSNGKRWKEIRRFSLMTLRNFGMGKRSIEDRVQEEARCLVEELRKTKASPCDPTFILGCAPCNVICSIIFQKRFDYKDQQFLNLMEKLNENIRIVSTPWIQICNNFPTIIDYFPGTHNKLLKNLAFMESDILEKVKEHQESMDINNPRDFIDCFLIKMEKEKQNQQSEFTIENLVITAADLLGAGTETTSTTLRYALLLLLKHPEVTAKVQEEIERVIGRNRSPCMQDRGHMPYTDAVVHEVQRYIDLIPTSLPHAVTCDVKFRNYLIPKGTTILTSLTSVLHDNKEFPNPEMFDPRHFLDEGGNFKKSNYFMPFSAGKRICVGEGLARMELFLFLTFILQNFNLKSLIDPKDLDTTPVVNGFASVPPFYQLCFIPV
The target of data set [4] is Cytochrome P450 3A4 (Homo sapiens, UniProt P08684). To be noted: Potency.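 Further: confirmatory qHTS run detecting inhibitors and substrates of CYP3A4.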
Sequence of Cytochrome P450 3A4 (P08684 whole entry): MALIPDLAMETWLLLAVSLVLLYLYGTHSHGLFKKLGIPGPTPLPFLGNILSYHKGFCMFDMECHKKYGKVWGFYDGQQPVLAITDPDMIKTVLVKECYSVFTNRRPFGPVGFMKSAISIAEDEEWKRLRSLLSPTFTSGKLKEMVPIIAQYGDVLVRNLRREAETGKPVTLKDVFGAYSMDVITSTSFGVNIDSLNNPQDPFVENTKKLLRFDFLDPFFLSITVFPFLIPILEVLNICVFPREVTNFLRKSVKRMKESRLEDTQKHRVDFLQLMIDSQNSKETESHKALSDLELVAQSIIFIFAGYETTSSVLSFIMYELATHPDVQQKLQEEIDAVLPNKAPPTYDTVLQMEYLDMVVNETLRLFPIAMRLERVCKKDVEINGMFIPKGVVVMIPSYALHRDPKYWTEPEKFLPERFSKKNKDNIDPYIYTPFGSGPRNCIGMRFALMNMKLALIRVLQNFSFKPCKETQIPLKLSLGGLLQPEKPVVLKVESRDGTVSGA
Data set [5] relates to Vero. In words: cells. In kind it is functional. The note with it: Chlorocebus sabaeus.
For data set [6], the target named is T2, High affinity choline transporter 1 (Homo sapiens, UniProt Q9GZV3).
T2 sequence (Q9GZV3 whole entry): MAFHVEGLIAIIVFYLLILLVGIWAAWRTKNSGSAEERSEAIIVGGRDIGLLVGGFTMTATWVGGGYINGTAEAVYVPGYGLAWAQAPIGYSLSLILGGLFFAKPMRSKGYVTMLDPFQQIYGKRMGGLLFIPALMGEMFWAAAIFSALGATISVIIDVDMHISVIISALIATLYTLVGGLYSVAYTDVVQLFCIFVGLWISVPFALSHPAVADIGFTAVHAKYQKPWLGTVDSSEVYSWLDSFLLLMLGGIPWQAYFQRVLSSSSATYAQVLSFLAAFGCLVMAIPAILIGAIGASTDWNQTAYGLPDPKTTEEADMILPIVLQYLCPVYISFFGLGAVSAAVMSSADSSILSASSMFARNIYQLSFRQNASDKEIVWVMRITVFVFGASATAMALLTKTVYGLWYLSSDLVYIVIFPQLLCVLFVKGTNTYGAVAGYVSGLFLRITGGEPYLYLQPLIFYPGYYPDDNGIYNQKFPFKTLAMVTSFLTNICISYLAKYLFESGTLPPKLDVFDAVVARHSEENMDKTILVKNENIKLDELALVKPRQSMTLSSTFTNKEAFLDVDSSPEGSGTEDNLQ
The data set is described as follows: CHT inhibitors, dose response, cell-based, 5-point CRC, membrane potential dye (AID 504840). It is filed as functional.

Data set [7] has as its target T3, Short transient receptor potential channel 4 (Mus musculus, UniProt Q9QUQ5).
T3 sequence (Q9QUQ5 whole entry): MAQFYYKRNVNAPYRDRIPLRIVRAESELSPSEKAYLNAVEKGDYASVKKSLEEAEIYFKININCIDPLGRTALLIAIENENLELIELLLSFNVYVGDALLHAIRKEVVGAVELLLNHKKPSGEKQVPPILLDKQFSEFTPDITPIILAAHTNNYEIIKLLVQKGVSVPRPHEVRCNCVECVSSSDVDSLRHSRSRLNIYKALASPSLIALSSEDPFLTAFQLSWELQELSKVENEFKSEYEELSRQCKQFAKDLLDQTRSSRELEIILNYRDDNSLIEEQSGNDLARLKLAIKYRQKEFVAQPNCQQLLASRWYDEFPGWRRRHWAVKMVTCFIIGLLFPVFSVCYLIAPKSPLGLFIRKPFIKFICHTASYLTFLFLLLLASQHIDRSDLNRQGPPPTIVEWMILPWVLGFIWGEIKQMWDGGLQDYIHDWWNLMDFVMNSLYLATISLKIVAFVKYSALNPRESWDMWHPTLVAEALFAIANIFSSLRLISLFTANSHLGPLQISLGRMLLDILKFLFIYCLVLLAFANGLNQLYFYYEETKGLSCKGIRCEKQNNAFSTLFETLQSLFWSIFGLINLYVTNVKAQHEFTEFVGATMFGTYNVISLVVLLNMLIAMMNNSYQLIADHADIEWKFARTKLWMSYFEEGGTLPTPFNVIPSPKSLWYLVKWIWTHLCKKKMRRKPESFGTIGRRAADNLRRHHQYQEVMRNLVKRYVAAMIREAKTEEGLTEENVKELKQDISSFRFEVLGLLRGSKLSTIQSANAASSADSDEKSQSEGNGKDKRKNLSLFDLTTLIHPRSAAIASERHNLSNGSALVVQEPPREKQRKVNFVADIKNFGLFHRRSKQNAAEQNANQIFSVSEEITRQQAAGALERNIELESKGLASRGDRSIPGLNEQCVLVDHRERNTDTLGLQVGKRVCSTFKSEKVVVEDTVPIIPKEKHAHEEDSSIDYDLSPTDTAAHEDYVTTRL
The data set is described as follows: mouse TRPC4 channel inhibitors, dose response, cell-based, HEK293 TRPC4/mu-opioid, Fluo-4 calcium (AID 434942).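 Further: potency of inhibitors blocking the TRPC4 calcium response.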 It is filed as functional.

Data set [8] concerns HEK293. The data set is described as follows: cells. In kind it is functional, cell-based. The note with it: Homo sapiens.
For data set [9], the system named is HEK293. In words: NOD1 signaling inhibitors, primary screen, cell-based, luminescence, uHTS (AID 1578). It is filed as functional. The note with it: Homo sapiens.
The subject of data set [10] is HEK293. In words: cells. It is filed as functional, cell-based. To be noted: Homo sapiens. The source holds these as a separate data set.
Data set [11] deals with HEK293. The data set is described as follows: cells. It is filed as functional, cell-based. To be noted: Homo sapiens. The source holds these as a separate data set.
For data set [12], the system named is HEK293. The data set is described as follows: NOD2 signaling inhibitors in MDP-stimulated cells, cell-based, uHTS, luminescence (AID 2001). It is filed as functional. The note with it: Homo sapiens.
Data set [13] deals with Nucleotide-binding oligomerization domain-containing protein 2 (Homo sapiens, UniProt Q9HC29). In words: NOD2 signaling inhibitors, cell-based, luminescence, uHTS, HEK293 (AID 1566). It is filed as functional.
Sequence of Nucleotide-binding oligomerization domain-containing protein 2 (Q9HC29 whole entry, the tested form may be a part): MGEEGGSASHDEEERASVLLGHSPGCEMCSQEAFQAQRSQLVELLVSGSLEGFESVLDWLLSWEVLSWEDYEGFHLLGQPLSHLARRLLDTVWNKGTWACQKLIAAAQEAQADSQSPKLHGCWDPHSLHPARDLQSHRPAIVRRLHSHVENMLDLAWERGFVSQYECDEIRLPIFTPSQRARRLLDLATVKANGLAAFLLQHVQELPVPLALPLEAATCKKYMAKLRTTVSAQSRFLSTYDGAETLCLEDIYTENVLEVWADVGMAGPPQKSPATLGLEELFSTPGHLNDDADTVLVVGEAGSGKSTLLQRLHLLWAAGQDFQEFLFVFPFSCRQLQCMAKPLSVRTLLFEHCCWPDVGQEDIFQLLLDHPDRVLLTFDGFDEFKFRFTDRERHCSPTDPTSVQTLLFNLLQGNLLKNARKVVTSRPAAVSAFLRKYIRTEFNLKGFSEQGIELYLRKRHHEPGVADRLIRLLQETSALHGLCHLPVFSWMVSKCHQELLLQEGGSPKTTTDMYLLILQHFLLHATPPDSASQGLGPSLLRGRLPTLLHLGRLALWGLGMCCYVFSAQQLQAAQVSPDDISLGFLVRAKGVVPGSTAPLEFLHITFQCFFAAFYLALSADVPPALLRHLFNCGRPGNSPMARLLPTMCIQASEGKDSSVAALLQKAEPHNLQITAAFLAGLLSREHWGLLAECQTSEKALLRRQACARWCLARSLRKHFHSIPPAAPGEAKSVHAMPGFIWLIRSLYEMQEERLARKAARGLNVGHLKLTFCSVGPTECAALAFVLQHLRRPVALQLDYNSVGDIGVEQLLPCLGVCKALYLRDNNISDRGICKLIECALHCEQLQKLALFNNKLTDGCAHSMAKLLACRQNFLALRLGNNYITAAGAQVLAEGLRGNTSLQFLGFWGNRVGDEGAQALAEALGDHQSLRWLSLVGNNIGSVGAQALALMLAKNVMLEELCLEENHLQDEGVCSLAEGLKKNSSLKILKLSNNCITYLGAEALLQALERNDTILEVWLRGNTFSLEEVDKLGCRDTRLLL
The target of data set [14] is T3, Short transient receptor potential channel 4. In words: mouse TRPC4 channel activators, dose response, cell-based, HEK293 TRPC4/mu-opioid, Fluo-4 calcium (AID 434937). It is filed as functional.
Data set [15] can be described thus: Luminescence Cell-Based Dose Retest to Confirm Inhibitors of Cancer Stem Cells. [Related pubchem assays (depositor defined):AID2717, AID2721]. It is filed as functional. The note with it: Homo sapiens.
The target in data set [16] is T4, Rac GTPase-activating protein 1 (Homo sapiens, UniProt Q9H0H5).
T4 sequence (Q9H0H5 whole entry): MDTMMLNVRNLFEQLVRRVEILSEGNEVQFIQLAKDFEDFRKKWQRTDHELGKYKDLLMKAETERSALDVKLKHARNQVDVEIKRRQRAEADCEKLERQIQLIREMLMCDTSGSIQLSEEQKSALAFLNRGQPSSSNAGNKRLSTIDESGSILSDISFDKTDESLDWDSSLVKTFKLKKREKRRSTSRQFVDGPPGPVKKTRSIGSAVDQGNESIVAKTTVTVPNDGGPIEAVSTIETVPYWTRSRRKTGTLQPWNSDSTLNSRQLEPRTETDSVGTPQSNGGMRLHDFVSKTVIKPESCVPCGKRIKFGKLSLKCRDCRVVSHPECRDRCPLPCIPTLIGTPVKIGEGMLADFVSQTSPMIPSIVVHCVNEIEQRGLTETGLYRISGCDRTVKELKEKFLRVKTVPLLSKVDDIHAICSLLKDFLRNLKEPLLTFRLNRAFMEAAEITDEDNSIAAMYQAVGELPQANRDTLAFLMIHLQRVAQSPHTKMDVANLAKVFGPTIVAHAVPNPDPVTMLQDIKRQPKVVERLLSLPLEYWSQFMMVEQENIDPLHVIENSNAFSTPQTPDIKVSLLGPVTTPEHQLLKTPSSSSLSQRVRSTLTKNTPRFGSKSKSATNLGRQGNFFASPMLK
In words: MgcRacGAP GTPase-activating activity inhibitors, confirmation, biochemical, ADP Hunter fluorescence, primary and confirmatory (AID 624330). In kind it is functional.

Sequence of Cytochrome P450 2C9 (P11712 whole entry): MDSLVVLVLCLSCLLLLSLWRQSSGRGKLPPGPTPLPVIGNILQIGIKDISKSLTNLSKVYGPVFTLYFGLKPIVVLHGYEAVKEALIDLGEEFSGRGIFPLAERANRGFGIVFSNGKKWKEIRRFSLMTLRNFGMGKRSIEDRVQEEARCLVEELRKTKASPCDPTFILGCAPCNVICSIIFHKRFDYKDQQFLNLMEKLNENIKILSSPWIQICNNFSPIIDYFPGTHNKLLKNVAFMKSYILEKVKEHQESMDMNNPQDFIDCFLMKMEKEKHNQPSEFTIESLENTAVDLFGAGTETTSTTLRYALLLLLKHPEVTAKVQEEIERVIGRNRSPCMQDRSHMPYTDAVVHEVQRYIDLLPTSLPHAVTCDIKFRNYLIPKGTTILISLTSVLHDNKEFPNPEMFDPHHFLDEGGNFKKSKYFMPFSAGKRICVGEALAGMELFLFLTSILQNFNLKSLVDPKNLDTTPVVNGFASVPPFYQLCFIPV

One may read the IC50 as the concentration that inhibits the measured activity by half. For `Fc1ccc(NC(=S)NNC(=S)Nc2ccccc2)cc1`, the IC50 in [1] was 0.218 µM (active).
In the case of `CCN(CC)c1ccc(NC(=O)Nc2ccc(OCc3ccccc3)cc2)cc1`, the IC50 in data set [1] was 0.235 µM (active).
Still for that read-out and setting: the figure for `O=C(Oc1ccc([N+](=O)[O-])cc1)c1sc2ccccc2c1Cl` is > 17 µM (not active).
The AC50 is the midpoint of the concentration-response curve, whichever way the signal moves. Consider `Cc1cc(C)cc(NC(S)=NC2CC3CCC(C2)N3Cc2ccco2)c1` (configuration not stated), for which the AC50 result is “inconclusive” in [2] and 35.5 µM (inconclusive) in data set [3].
With `Nc1ccc2ccccc2c1` [NAPHTHYLAMINE], the AC50 in [4] was 12.6 µM (inconclusive).
By CC50 is commonly meant the concentration at which the toxic effect on the cells reaches its halfway point. One may read the EC50 as the midpoint of the concentration-response curve. Take `Cc1cc(OCc2cc(C(=O)NCCN3CCCCC3CO)no2)cc(C)c1Cl` (configuration not stated): the cytotoxic concentration (CC50) in data set [5] was > 25 µM (active). In addition, the IC50 in data set [6] was 18.2 µM (active). Moreover, the EC50 in [7] is 2.99 µM (active).
As for `CCC(=O)CC(NC(=O)OC)c1ccccc1` (configuration not stated), the AC50 in data set [4] is 6.31 µM (inconclusive).
Regarding `COc1ccc(F)cc1C(=O)C1CCCN(Cc2ccc3c(c2)OCCO3)C1` (configuration not stated), in [7], the EC50 is 1.33 µM (active).
`CCc1ccc(OCC(=O)Nc2ccc(-c3cc4ccccc4oc3=O)c(OC)c2)cc1`: the 50% inhibitory concentration (IC50) is 11.3 µM (active) in data set [8], 2.79 µM (active) in data set [10], > 20 µM (inactive) in data set [11] and 2.94 µM (active) in [12]. Further, the values for the EC50 in data set [9] and in data set [13] were 2.18 µM (active) and 5.25 µM (active), respectively.
Take `CSc1ccc(NC(=O)Nc2ccc(N(C)C)cc2)cc1`: in [1], the IC50 is 0.0777 µM (active).
`CCOC(=O)C1(O)Oc2cc(OC)cc(OC)c2C(=O)C1c1ccccc1` (configuration not stated) [2-ETHOXYCARBONYL-2-HYDROXY-5,7-DIMETHOXYISOFLAVANONE]: the half-maximal activity concentration (AC50) in [4] was 20 µM (inconclusive).
On to `Cc1ccc(OP(=O)(Oc2ccc(C)cc2)N2C=Cc3ccccc3[C@H]2C#N)cc1`, for which the AC50 result in data set [2] is reported as “inconclusive”.
Still for that read-out and setting: the result for `N#Cc1cccc(-c2nc3cnc(N4CCOCC4)nc3n(Cc3ccc(F)cc3)c2=O)c1` reads “inconclusive”.
With `COc1cc(/C=C/C(=O)c2ccc3c(c2)OCO3)cc(Cl)c1O`, the concentration giving a half-maximal response (EC50) in data set [14] was 5.96 µM (active). For the same compound, the AC50 in data set [15] was 6.39 µM (active). In data set [16], the IC50 was 93.6 µM (active).
With `CN(C)C(CNC(=O)Cc1cccc(C(F)(F)F)c1)c1ccccc1` (configuration not stated), the results for the EC50 in data set [7] and in data set [14] were 0.0093 µM (active) and 0.0947 µM (active), respectively.
As for `CNC(=O)[C@@]1(C)C=C[C@@H](Cc2ccccc2)N1C(=O)OC`, the AC50 in data set [4] was 3.16 µM (inconclusive).
